For orientation: CC50 means the concentration giving 50% cytotoxicity.

For one assay, the system named is HEK293. As to the kind of experiment: cells. Type of assay: functional, Homo sapiens, ATCC CRL1573. The conditions noted are these: Homo sapiens, ATCC CRL1573, HEK293; ASSAY_TEST Inhibition of Cell Viability; detection method Resazurin; Fluorescence (ex560/em590); MEDIA DMEM with 10% FBS; plate type 384well; TC; CORNING #3712; time 18 hr; read-out: CC50. In general terms: Alamar Blue is a resazurin reagent that responds to reducing activity.

Assay [1] has as its system Pseudomonas aeruginosa. As to the kind of experiment: Antibacterial activity against Pseudomonas aeruginosa PAO397 [PAO1 d(mexAB-oprM) d(mexCD-oprJ) d(mexEF-oprN) d(mexJKL) d(mexXY) d(opmH)] (CO-ADD:GN_211); MIC in CAMBH media using NBS plates, by OD(600). The format is functional. The settings on record: ASSAY_TEST Inhibition of Bacterial Growth, detection method Absorption (OD600), MEDIA CAMHB, plate type 384well, CORNING #3640, time 18 hr.

A further assay deals with Staphylococcus aureus. As to the kind of experiment: microbe, parasite or virus in culture. The settings on record: ATCC 43300, 18 h, ASSAY_TEST Inhibition of Bacterial Growth, detection method Absorption (OD600), MEDIA CAMHB, plate type 384well, NBS, CORNING #3640.
The test system of another assay is Escherichia coli. As to the kind of experiment: microbe, parasite or virus in culture. The conditions noted are these: ATCC 25922, 18 h, ASSAY_TEST Inhibition of Bacterial Growth, detection method Absorption (OD600), MEDIA CAMHB, plate type 384well, NBS, CORNING #3640.
A further assay has as its system Klebsiella pneumoniae. As to the kind of experiment: microbe, parasite or virus in culture. The conditions noted are these: ATCC 700603, 18 h, ASSAY_TEST Inhibition of Bacterial Growth, detection method Absorption (OD600), MEDIA CAMHB, plate type 384well, NBS, CORNING #3640.
Assay [2] deals with Pseudomonas aeruginosa. As to the kind of experiment: microbe, parasite or virus in culture. The settings on record: ATCC 27853, 18 h, ASSAY_TEST Inhibition of Bacterial Growth, detection method Absorption (OD600), MEDIA CAMHB, plate type 384well, NBS, CORNING #3640.
Description: Antibacterial activity against Pseudomonas aeruginosa ATCC 27853 (CO-ADD:GN_042); MIC in CAMBH media using NBS plates, by OD(600)
In a further assay the test system is Acinetobacter baumannii. As to the kind of experiment: microbe, parasite or virus in culture. The settings on record: ATCC 19606, 18 h, ASSAY_TEST Inhibition of Bacterial Growth, detection method Absorption (OD600), MEDIA CAMHB, plate type 384well, NBS, CORNING #3640.
The subject of the next assay is Candida albicans. As to the kind of experiment: microbe, parasite or virus in culture. The conditions noted are these: ATCC 90028, ASSAY_TEST Inhibition of Fungal Growth, detection method Absorption (OD530), plate type 384well, NBS, CORNING #3640.

Converted amounts (≈) assume the structure as drawn. Bounds are passed on as bounds.

Description for Acinetobacter baumannii: Antibacterial activity against Acinetobacter baumannii ATCC 19606 (CO-ADD:GN_034); MIC in CAMBH media using NBS plates, by OD600
Description for Candida albicans: Antifungal activity against Candida albicans ATCC 90028 (CO-ADD:FG_001); MIC in YNB media using NBS plates, by OD630
Description for Cryptococcus neoformans: Antifungal activity against Cryptococcus neoformans H99 ATCC 208821 (CO-ADD:FG_002); MIC in YNB media using NBS plates, by Resazurin OD(600-570)
Description for Escherichia coli: Antibacterial activity against Escherichia coli ATCC 25922 (CO-ADD:GN_001); MIC in CAMBH media using NBS plates, by OD(600)
Description for Klebsiella pneumoniae: Antibacterial activity against Klebsiella pneumoniae MDR ATCC 70063 (CO-ADD:GN_003); MIC in CAMBH media using NBS plates, by OD(600)
Description for Staphylococcus aureus: Antibacterial activity against Staphylococcus aureus MRSA ATCC 43300 (CO-ADD:GP_020); MIC in CAMBH media, using NBS plates, by OD(600)

With `N[C@H]1CCC[C@H]1C(=O)O`, the CC50 in the assay on HEK293 is greater than 20 µM. For the same compound, the MIC against Pseudomonas aeruginosa [1], in the assay on Cryptococcus neoformans, in the assay on Staphylococcus aureus, in the assay with Escherichia coli, in the assay with Klebsiella pneumoniae and in the assay with Pseudomonas aeruginosa [2] was greater than 20 µM in each case. For the same compound, the MIC against Acinetobacter baumannii and with Candida albicans was greater than 20 µM in each case.
In the case of `COc1ccc(C(C)(C)C)cc1NC(=O)C(=O)c1ccc(OCCN2CCOCC2)c2ccccc12`, the CC50 with HEK293 is greater than 20 µM. Besides, the MIC with Pseudomonas aeruginosa [1], in the assay with Cryptococcus neoformans, with Staphylococcus aureus, against Escherichia coli, with Klebsiella pneumoniae and against Pseudomonas aeruginosa [2] was greater than 20 µM each time. The MIC against Acinetobacter baumannii and with Candida albicans was greater than 20 µM in each case.
Consider `CN(O)C(=O)c1cc2c(CN3CCC[C@H]3C(N)=O)cn(Cc3ccc(F)cc3)c2cn1`, for which the CC50 in the assay on HEK293 is greater than 20 µM. In addition, the MIC against Pseudomonas aeruginosa [1], with Cryptococcus neoformans, against Staphylococcus aureus, in the assay with Escherichia coli, against Klebsiella pneumoniae and with Pseudomonas aeruginosa [2] was greater than 20 µM in each case. The MIC against Acinetobacter baumannii and against Candida albicans was greater than 20 µM in each case.
For `COc1cc(Cc2cnc(N)nc2N)c2c(c1OC)OC(C1CC1)C=C2` (stereo not given), the CC50 in the assay on HEK293 was greater than 20 µM. Also, the MIC in the assay on Pseudomonas aeruginosa [1] is 5 µM (≈ 1.77 µg/mL); in the assay on Cryptococcus neoformans, greater than 20 µM; in the assay on Staphylococcus aureus, 2.5 µM (≈ 0.886 µg/mL); against Escherichia coli, greater than 20 µM; in the assay with Klebsiella pneumoniae, greater than 20 µM; in the assay on Pseudomonas aeruginosa [2], greater than 20 µM. The MIC in the assay on Acinetobacter baumannii and in the assay on Candida albicans was greater than 20 µM in each case.
With `CCCCc1ccc(S(=O)(=O)Nc2cc(C)on2)cc1`, the CC50 in the assay with HEK293 is greater than 20 µM. For the same compound, the MIC against Pseudomonas aeruginosa [1], against Cryptococcus neoformans, with Staphylococcus aureus, with Escherichia coli, with Klebsiella pneumoniae and against Pseudomonas aeruginosa [2] was greater than 20 µM throughout. Further, the MIC against Acinetobacter baumannii and against Candida albicans was greater than 20 µM each time.
Take `O=C(O)COc1cccc2c1CC[C@](O)(COC(=O)N(c1ccccc1)c1ccccc1)C2`: the CC50 in the assay on HEK293 was greater than 20 µM. For the same compound, the MIC against Pseudomonas aeruginosa [1], in the assay with Cryptococcus neoformans, in the assay on Staphylococcus aureus, in the assay on Escherichia coli, against Klebsiella pneumoniae and against Pseudomonas aeruginosa [2] was greater than 20 µM throughout. The MIC against Acinetobacter baumannii and against Candida albicans was greater than 20 µM throughout.
Regarding `O=[N+]([O-])/C(Br)=C/c1ccc(Br)o1`, the CC50 with HEK293 was greater than 20 µM. The MIC with Pseudomonas aeruginosa [1] was greater than 20 µM; against Cryptococcus neoformans, 20 µM (≈ 5.94 µg/mL); in the assay with Staphylococcus aureus, greater than 20 µM; against Escherichia coli it was greater than 20 µM; in the assay with Klebsiella pneumoniae, greater than 20 µM; in the assay with Pseudomonas aeruginosa [2], greater than 20 µM. The MIC in the assay with Acinetobacter baumannii is greater than 20 µM; in the assay on Candida albicans, 20 µM (≈ 5.94 µg/mL).
Turning to `C[C@H]1CC[C@]2(NC1)O[C@H]1C[C@H]3[C@@H]4CC[C@H]5C[C@@H](O)CC[C@]5(C)[C@H]4CC[C@]3(C)[C@H]1[C@@H]2C`, the CC50 in the assay with HEK293 was greater than 20 µM. Moreover, the MIC against Pseudomonas aeruginosa [1], against Cryptococcus neoformans, in the assay on Staphylococcus aureus, against Escherichia coli, in the assay with Klebsiella pneumoniae and with Pseudomonas aeruginosa [2] was greater than 20 µM throughout. In addition, the MIC against Acinetobacter baumannii was greater than 20 µM; in the assay with Candida albicans, 20 µM (≈ 8.31 µg/mL).
For the compound `O=C(N[C@H](Cc1cccc2ccccc12)C(=O)NCCc1c[nH]cn1)C1Cc2ccccc2C1`, in the assay with HEK293, the CC50 is greater than 20 µM. The MIC against Pseudomonas aeruginosa [1], in the assay on Cryptococcus neoformans, in the assay with Staphylococcus aureus, against Escherichia coli, against Klebsiella pneumoniae and in the assay on Pseudomonas aeruginosa [2] was greater than 20 µM each time. Moreover, the MIC in the assay on Acinetobacter baumannii and against Candida albicans was greater than 20 µM in each case.
`FC(F)(F)c1cc(C(F)(F)F)c2ccc3nc(-c4nnco4)cn3c2n1`: in the assay on HEK293, the CC50 is greater than 20 µM. In addition, the MIC against Pseudomonas aeruginosa [1], in the assay on Cryptococcus neoformans, against Staphylococcus aureus, in the assay with Escherichia coli, against Klebsiella pneumoniae and against Pseudomonas aeruginosa [2] was greater than 20 µM each time. The MIC in the assay on Acinetobacter baumannii and against Candida albicans was greater than 20 µM in each case.
For `CN(C)CCCOc1ccc(-c2ccc3ncc4c(c3c2)n(C2CCOCC2)c(=O)n4C)cn1`, the CC50 with HEK293 is greater than 20 µM. For the same compound, the MIC in the assay with Pseudomonas aeruginosa [1], against Cryptococcus neoformans, with Staphylococcus aureus, in the assay with Escherichia coli, in the assay on Klebsiella pneumoniae and with Pseudomonas aeruginosa [2] was greater than 20 µM throughout. Also, the MIC in the assay with Acinetobacter baumannii and in the assay on Candida albicans was greater than 20 µM each time.
`C[Si]1(C)CCN(Cc2cc(-c3ccc(Cl)cc3)n(-c3ccc(Cl)cc3)n2)CC1`: in the assay on HEK293, the CC50 is greater than 20 µM. The MIC against Pseudomonas aeruginosa [1], against Cryptococcus neoformans, in the assay with Staphylococcus aureus, in the assay with Escherichia coli, in the assay on Klebsiella pneumoniae and with Pseudomonas aeruginosa [2] was greater than 20 µM throughout. Also, the MIC against Acinetobacter baumannii and against Candida albicans was greater than 20 µM in each case.
Consider `O=C(CCc1ccc2c(c1)OCO2)NCc1ccc(-c2ccccc2F)cc1`, for which, in the assay with HEK293, the CC50 is greater than 20 µM. Moreover, the MIC against Pseudomonas aeruginosa [1], in the assay on Cryptococcus neoformans, in the assay with Staphylococcus aureus, in the assay with Escherichia coli, in the assay on Klebsiella pneumoniae and with Pseudomonas aeruginosa [2] was greater than 20 µM throughout. Also, the MIC in the assay with Acinetobacter baumannii and against Candida albicans was greater than 20 µM throughout.
On to `CCC(C)(C)c1ccc(CC(C)CN2C[C@@H](C)O[C@@H](C)C2)cc1` (stereo not given in full), for which the CC50 in the assay on HEK293 was greater than 20 µM. Besides, the MIC with Pseudomonas aeruginosa [1], against Cryptococcus neoformans, in the assay with Staphylococcus aureus, with Escherichia coli, against Klebsiella pneumoniae and with Pseudomonas aeruginosa [2] was greater than 20 µM in each case. The MIC with Acinetobacter baumannii was greater than 20 µM; in the assay with Candida albicans, 2.5 µM (≈ 0.794 µg/mL).
Turning to `CC(C)(C)c1ccc(C(=O)NC(=O)N2CCCc3ccccc32)cc1`, the CC50 in the assay on HEK293 is greater than 20 µM. The MIC with Pseudomonas aeruginosa [1], against Cryptococcus neoformans, in the assay with Staphylococcus aureus, in the assay with Escherichia coli, with Klebsiella pneumoniae and against Pseudomonas aeruginosa [2] was greater than 20 µM in each case. The MIC in the assay on Acinetobacter baumannii and against Candida albicans was greater than 20 µM throughout.
Consider `CC1(C)C[C@H]1C(=O)N/C(=C\CCCCSC[C@@H](N)C(=O)O)C(=O)O`, for which the CC50 with HEK293 was greater than 20 µM. The MIC with Pseudomonas aeruginosa [1], against Cryptococcus neoformans, in the assay with Staphylococcus aureus, in the assay with Escherichia coli, in the assay with Klebsiella pneumoniae and in the assay on Pseudomonas aeruginosa [2] was greater than 20 µM throughout. The MIC in the assay with Acinetobacter baumannii and in the assay on Candida albicans was greater than 20 µM each time.
With `Clc1cc(Cl)c2c(c1)CCc1ccccc1C2n1ccnc1` (stereo not given), the CC50 with HEK293 was greater than 20 µM. In addition, the MIC was 20 µM (≈ 6.58 µg/mL) in the assay with Pseudomonas aeruginosa [1]; 20 µM (≈ 6.58 µg/mL) against Cryptococcus neoformans; 20 µM (≈ 6.58 µg/mL) with Staphylococcus aureus; greater than 20 µM in the assay on Escherichia coli; greater than 20 µM in the assay on Klebsiella pneumoniae; greater than 20 µM against Pseudomonas aeruginosa [2]. Besides, the MIC is greater than 20 µM against Acinetobacter baumannii and 5 µM (≈ 1.65 µg/mL) in the assay with Candida albicans.
As for `O=C1c2cccc3cccc(c23)C(=O)N1CC1CO1` (stereo not given), the CC50 in the assay with HEK293 amounted to 4.49 µM. The MIC against Pseudomonas aeruginosa [1] is greater than 20 µM; against Cryptococcus neoformans, greater than 20 µM; against Staphylococcus aureus it was 20 µM (≈ 5.07 µg/mL); in the assay with Escherichia coli, greater than 20 µM; in the assay with Klebsiella pneumoniae, greater than 20 µM; against Pseudomonas aeruginosa [2], greater than 20 µM. Besides, the MIC in the assay with Acinetobacter baumannii and against Candida albicans was greater than 20 µM in each case.
In the case of `O=C(/C(=C/c1ccc(Cl)cc1Cl)n1ccnc1)c1ccc(Cl)cc1`, in the assay with HEK293, the CC50 is 5.19 µM. For the same compound, the MIC in the assay with Pseudomonas aeruginosa [1] is greater than 20 µM; against Cryptococcus neoformans, 20 µM (≈ 7.55 µg/mL); with Staphylococcus aureus, 20 µM (≈ 7.55 µg/mL); against Escherichia coli it was greater than 20 µM; against Klebsiella pneumoniae it was greater than 20 µM; with Pseudomonas aeruginosa [2], greater than 20 µM. Also, the MIC with Acinetobacter baumannii is greater than 20 µM; in the assay with Candida albicans, 10 µM (≈ 3.78 µg/mL).
Turning to `NC(=O)C(c1ccccc1)(c1ccccc1)[C@H]1CCCN(CCc2ccc3c(c2)CCO3)C1`, the CC50 with HEK293 was greater than 20 µM. Moreover, the MIC in the assay with Pseudomonas aeruginosa [1] is 20 µM (≈ 8.81 µg/mL); in the assay with Cryptococcus neoformans it was greater than 20 µM; with Staphylococcus aureus, greater than 20 µM; against Escherichia coli, greater than 20 µM; against Klebsiella pneumoniae it was greater than 20 µM; against Pseudomonas aeruginosa [2], greater than 20 µM. In addition, the MIC against Acinetobacter baumannii and against Candida albicans was greater than 20 µM throughout.

(Values after ChEMBL document CHEMBL4513161, “CO-ADD screening of MMV (CH) - Pandemic Response Box” (2021).)
